Data on seven substances can be found in US20120270928A1, “MICRORNA COMPOUNDS AND METHODS FOR MODULATING MIR-21 ACTIVITY” (REGULUS THERAPEUTICS INC., priority 2011, published 2012).

The nature of series [1]: In vivo stability of compound in kidney tissue after administration to mice. Particulars: kidney tissue after administration; for in vivo (kidney) N − 1 (%): compound lacking the 3′-terminal nucleoside; for in vivo (kidney) N (%): full-length compound.
Series [2] in a line: Ex vivo liver homogenate stability assay (HPLC-TOF MS). The conditions noted are these: 24 hours at 37° C.; for ex vivo (liver) N %↓: full-length compound; for ex vivo (liver) % Endo / ex vivo (liver) % N − 1: 5 μM oligonucleotide in liver homogenate; for ex vivo (liver) % N − 1: compound lacking the 3′-terminal nucleoside.
Series [3] has as its system UUO model of kidney fibrosis. In words: Unilateral ureteral obstruction (UUO) model of kidney fibrosis: kidney collagen 1A1 and collagen 3A1 expression by real-time PCR. Type of series: in vivo, mice. Particulars: for Collagen 3A1 (Normalized Expression) Mean / Collagen 1A1 (Normalized Expression) Mean / Collagen 1A1 (Normalized Expression) / Collagen 3A1 (Normalized Expression): Table K, UUO mice, kidney at day 11; for Collagen 3A1 (Normalized Expression) Mean / Collagen 1A1 (Normalized Expression) Mean: group mean; for Collagen 3A1 (Normalized Expression) Mean / Collagen 1A1 (Normalized Expression) Mean / reduction in collagen expression (in words): 20 mg/kg at days -3, -1, +5; for Collagen 3A1 (Normalized Expression) Mean: UUO-PBS mean 87.2; for Collagen 1A1 (Normalized Expression) Mean: UUO-PBS mean 114.9; for Collagen 1A1 (Normalized Expression) / Collagen 3A1 (Normalized Expression): individual animals, 20 mg/kg at days -3, -1, +5 (prophylactic), real-time PCR normalized to GAPDH then sham, 20 mg/kg; for reduction in collagen expression (in words): meta-analysis of UUO studies; for collagen 1A1 expression (FIG. 2A, in words) / collagen 3A1 expression (FIG. 2B, in words): UUO, 20 mg/kg at days -5, -3, +3, kidney at day 10. The method, then:
Unilateral ureteral obstruction (UUO) is a well-established experimental model of renal injury leading to interstitial fibrosis, and thus is used as an experimental model that is reflective of human kidney disease. UUO is induced by surgically ligating a single ureter. As fibrosis is characterized by an increase in collagen, the presence and extent of kidney fibrosis may be determined by measuring collagen content. Both collagen 1A1 (Col 1A1) and collagen 3A1 (Col 3A1) are measured to assess collagen content. Kidney fibrosis may be visualized by staining tissue samples with picro-sirius red to detect increases in collagen content. Kidney fibrosis may also be observed by measuring the amount of hydroxyproline, which is a major component of collagen, in a sample.
The cEt-containing anti-miR-21 compounds found to be active in the luciferase assay were tested in the UUO model of kidney fibrosis. 25919 comprising 2′-MOE and 2′-fluoro modifications is known to inhibit miR-21 activity in vivo and was included as a positive control. Groups of 8 animals each were treated as follows: UUO only, UUO with PBS, or UUO with anti-miR-21 compound. Relative to the day of the UUO procedure, PBS or anti-miR-21 compound was administered at days −3, −1, and +5. Anti-miR-21 compounds were administered at a dose of 20 mg/kg. As the anti-miR compounds were administered prior to the UUO procedure, this dosing regimen is considered a prophylactic treatment. At day 11, animals were sacrificed and kidney was isolated for measurement of collagen expression. Collagen expression was measured by real-time PCR and normalized first to GAPDH and then to the sham control animals.
The UUO study was repeated to confirm the activity of 25070. The anti-miR was administered subcutaneously at a dose of 20 mg/kg.
Control treatment groups included UUO only (sham) and UUO with PBS administered subcutaneously. An additional control group included UUO with Tween-MC/20 carrier perorally. 25070 administered subcutaneously at dose of 20 mg/kg at 5 days prior to, 2 days prior to, and 3 days after, the UUO procedure. Irbesartan was administered perorally on daily on days 0 through 7 following the UUO procedure. Animals were sacrificed on Day 10 following the UUO procedure. Kidney tissue was collected for measurement of collagen 1A1 and collagen 3A1 expression.
Compounds 25220 and 25221, as well as 25923, were tested in the UUO model for their effects on fibrosis. Groups of 8 animals each were treated as follows: sham surgery, UUO with PBS, UUO with 25220, UUO with 25221, or UUO with 25923. Relative to the day of the UUO procedure, PBS or anti-miR-21 compound was administered at days −5, −3, and +3. Anti-miR-21 compounds were administered at a dose of 20 mg/kg. As the anti-miR compounds were administered prior to the UUO procedure, this dosing regimen is considered a prophylactic treatment. At day 10, animals were sacrificed and kidney was isolated for measurement of collagen expression. Collagen expression was measured by real-time PCR and normalized to GAPDH.
On the technique in general: In qPCR the cycle at which signal appears reflects the starting amount.

A further series concerns miR-21. As to the kind of experiment: miR-21 luciferase sensor assay in Hela cells. Particulars: Hela cells. Type of series: cell-based. The method, then:
The compounds were assessed for miR-21 inhibitory activity in a luciferase assay. A microRNA luciferase sensor construct was engineered using pGL3-MCS2 (Promega). The construct was introduced into Hela cells to test the ability of anti-miR compounds to inhibit activity of miR-21. In this assay, miR-21 present in the Hela cells binds to its cognate site(s) in the luciferase sensor construct, and suppresses luciferase expression. When the appropriate anti-miR is introduced into the cells, it binds to miR-21 and relieves suppression of luciferase expression. Thus, in this assay anti-miRs that are effective inhibitors of miR-21 expression will cause an increase in luciferase expression.
Hela cells (ATCC), stably transfected with a luciferase construct engineered to contain a sequence complementary of miR-21, were seeded in T-170 flasks (BD Falcon) at 3.5*10^6 cells/flask. Hela cells were grown in Dulbecco's Modified Eagle Medium with High Glucose (Invitrogen).
Each flask of Hela cells was transfected with 0.5 ug of a phRL sensor plasmid (Promega) expressing Renilla to be used in normalization. Hela cells were transfected using 20 ul Lipofectamine 2000/flask (Invitrogen). After 4 hours of transfection, cells were washed with PBS and trypsinized Hela cells were plated at 40 k/well in 24 well plates (BD Falcon) and left overnight.
Hela cells were transfected with anti-miRs using Lipofectin (Invitrogen) at 2.5 ul Lipofectin/100 nM ASO/ml Opti-MEM I Reduced Serum Medium (Invitrogen) for 4 hours. After ASO transfection, Hela cells were refed with Dulbecco's Modified Eagle Medium with High Glucose (Invitrogen).
Hela cells are passively lysed and luciferase activity measured using the Dual-Luciferase Reporter Assay System (Promega).
The luciferase assay was performed to test the ability of anti-miRs with the nucleoside patterns described herein to inhibit the activity of miR-21. Results were compared to a ‘mock’ treatment, in which cells received no anti-miR treatment. The experiment was repeated and results of two experimental replicates are shown in the following Table B, as the luciferase value normalized to beta-galactosidase activity.
The luciferase assay was performed as described herein to test the ability of anti-miRs in Table F to inhibit the activity of miR-21. Results were compared to a ‘mock’ treatment, in which cells received no anti-miR treatment. The experiment was repeated and results of two experimental replicates are shown in the following Table D, as fold change in luciferase value relative to the mock treatment.

[4] abbreviates: 5 μM oligonucleotide in liver homogenate (50 mg tissue per ml).
[5] abbreviates: 500 nM oligonucleotide, two experimental replicates.

Where “and” joins values, the source holds several entries; their conditions need not be identical. Identical values can stand only once.

For “AECSATCSAGTCSTGAUSAAGCSTAS (antisense ACATCAGTCTGATAAGCTA; cEt and 2'-MOE nucleosides) [Compound 25923]”, in series [1], the “in vivo (kidney) N − 1 (%)” value was determined as 14 ± 5% and the “in vivo (kidney) N (%)” value was determined as 58 ± 3%. Besides, in series [2] (setting [4]), the “compound lacking the 3′-terminal nucleoside” value was “about 18%”, the “compound present as the full-length compound” value is listed as “About 68%” and the “ex vivo (liver) N %↓” value stood at 17%. Also, in series [2], the “ex vivo (liver) % Endo” value is given as 2-3% and the “ex vivo (liver) % N − 1” value is 13%.

With “AECSATCSAGTCSTGAUSAAGCSUsAS (ACATCAGTCTGATAAGCTA; sugar and backbone modifications) [Compound 25221]”, in series [1], the “in vivo (kidney) N − 1 (%)” value is 4 ± 1% and the “in vivo (kidney) N (%)” value is recorded as 76 ± 4%. In series [2] (setting [4]), the “ex vivo (liver) N %↓” value came out at 3%. Also, in series [2], the “ex vivo (liver) % Endo” value was 3% and the “ex vivo (liver) % N − 1” value was found to be 0%.

As to “AECSAETECSAEGETECSTEGEAEUSAEAEGECSTEAE (ACATCAGTCTGATAAGCTA; anti-miR; sugar and backbone modifications, code letters not given here, further chemistry not given here) [Compound 25072]”, in series [3], the “Collagen 3A1 (Normalized Expression) Mean” value stood at 65.5. In addition, the “Collagen 1A1 (Normalized Expression) Mean” value in series [3] was found to be 113.8. In addition, the “Collagen 1A1 (Normalized Expression)” value in series [3] is 96.2 and 85.7 and 127.4 and 100.0 and 159.2 and 120.5 and 108.0. In series [3], the “Collagen 3A1 (Normalized Expression)” value is 69.4 and 54.5 and 58.8 and 69.2 and 93.8 and 65.8 and 46.9. Moreover, the “reduction in collagen expression (in words)” value (“reduction” for short) in series [3] is given as “did not consistently demonstrate a reduction in collagen expression”. Besides, the “luciferase value normalized to beta-galactosidase activity” value (from here on “luciferase value normalized”) with miR-21 (4 nM oligonucleotide) was found to be 76; in the series with miR-21 (20 nM oligonucleotide), 86; in the series with miR-21 (100 nM oligonucleotide), 115; in the series on miR-21 (setting [5]), 143; in the series with miR-21 (.16 nM oligonucleotide), 40; in the series on miR-21 (.8 nM oligonucleotide), 49. The “inhibition of miR-21 activity in the luciferase assay (in words)” value (from here on “inhibition of miR-21 activity”) in the series on miR-21 is on record as “inhibition of miR-21 in a dose-dependent manner”.

As to “TE^MeCEAEAECSAETECSAEGETECSTEGEAEUSAEAEGECSTEAE (TCAACATCAGTCTGATAAGCTA; modified nucleosides and phosphorothioate, code letters not given here, further chemistry not given here) [Compound 25068]”, in series [3], the “Collagen 3A1 (Normalized Expression) Mean” value came to 60.6. The “Collagen 1A1 (Normalized Expression) Mean” value in series [3] is on record as 96.4. Further, the “Collagen 1A1 (Normalized Expression)” value in series [3] is 84.7 and 75.1 and 85.5 and 89.1 and 90.4 and 125.8 and 124.4. Further, the “Collagen 3A1 (Normalized Expression)” value in series [3] is 64.8 and 56.2 and 47.4 and 76.2 and 57.0 and 63.0 and 59.6. The “reduction” value in series [3] is “active in reducing collagen expression, but to a lesser extent than 25070”. In addition, the “luciferase value normalized” value in the series with miR-21 (4 nM oligonucleotide) worked out at 64; with miR-21 (20 nM oligonucleotide) it was 86; in the series with miR-21 (100 nM oligonucleotide), 97; in the series on miR-21 (setting [5]) it was 122; in the series on miR-21 (.16 nM oligonucleotide), 45; with miR-21 (.8 nM oligonucleotide), 54. Moreover, in the series with miR-21, the “inhibition of miR-21 activity” value was “inhibition of miR-21 in a dose-dependent manner”.

Turning to “AECSATCSASGTCSUSGAUSASAGCSUsAE (ACATCAGTCTGATAAGCTA; sugar and backbone modifications, chemistry not fully specified) [Compound 25220]”, in series [3], the “collagen 1A1 expression (FIG. 2A, in words)” value is “reduced collagen 1A1 and collagen 3A1 expression by a stastically significant amount”; the “collagen 3A1 expression (FIG. 2B, in words)” value was “reduced collagen 1A1 and collagen 3A1 expression by a stastically significant amount”.

On to “TE^MeCAACSATCSAGTCSTGAUSAAGCSTAE (TCAACATCAGTCTGATAAGCTA; modified nucleosides with 5-methyl C, code letters not given here, further chemistry not given here) [Compound 25082]”, for which the “Collagen 3A1 (Normalized Expression) Mean” value in series [3] amounted to 59.1. Besides, the “Collagen 1A1 (Normalized Expression) Mean” value in series [3] came to 91.7. Moreover, the “Collagen 1A1 (Normalized Expression)” value in series [3] is 122.2 and 188.3 and 102.5 and 67.6 and 40.6 and 44.1 and 73.8 and 94.7. For the same substance, the “Collagen 3A1 (Normalized Expression)” value in series [3] was 62.9 and 78.9 and 82.2 and 43.8 and 32.6 and 34.3 and 75.8 and 62.5. Further, the “reduction” value in series [3] was “did not consistently demonstrate a reduction in collagen expression”. Further, the “luciferase value normalized” value was found to be 112 in the series with miR-21 (4 nM oligonucleotide); 147 with miR-21 (20 nM oligonucleotide); 176 in the series on miR-21 (100 nM oligonucleotide); 202 in the series on miR-21 (setting [5]); 70 in the series with miR-21 (.16 nM oligonucleotide); 89 in the series with miR-21 (.8 nM oligonucleotide). Further, in the series on miR-21, the “inhibition of miR-21 activity” value was “inhibition of miR-21 in a dose-dependent manner”.

As for “AECSATCSAGTCSTGAUSAAGCSUsAS (ACATCAGTCTGATAAGCTA; sugar and backbone modifications, chemistry not fully specified) [Compound 25221]”, in series [3], the “collagen 1A1 expression (FIG. 2A, in words)” value is “reduced collagen 1A1 and collagen 3A1 expression by a stastically significant amount”; the “collagen 3A1 expression (FIG. 2B, in words)” value is “reduced collagen 1A1 and collagen 3A1 expression by a stastically significant amount”.
